Results published in patent US9169254B2, “Spiroimidazolone derivative” (Chugai Seiyaku Kabushiki Kaisha, priority 2009, dated 2015).
Structures can show the parent of a compound that is named as a salt.

Target: T1, human PTH1 receptor (Homo sapiens, UniProt Q03431)
T1 sequence (Q03431 27-593): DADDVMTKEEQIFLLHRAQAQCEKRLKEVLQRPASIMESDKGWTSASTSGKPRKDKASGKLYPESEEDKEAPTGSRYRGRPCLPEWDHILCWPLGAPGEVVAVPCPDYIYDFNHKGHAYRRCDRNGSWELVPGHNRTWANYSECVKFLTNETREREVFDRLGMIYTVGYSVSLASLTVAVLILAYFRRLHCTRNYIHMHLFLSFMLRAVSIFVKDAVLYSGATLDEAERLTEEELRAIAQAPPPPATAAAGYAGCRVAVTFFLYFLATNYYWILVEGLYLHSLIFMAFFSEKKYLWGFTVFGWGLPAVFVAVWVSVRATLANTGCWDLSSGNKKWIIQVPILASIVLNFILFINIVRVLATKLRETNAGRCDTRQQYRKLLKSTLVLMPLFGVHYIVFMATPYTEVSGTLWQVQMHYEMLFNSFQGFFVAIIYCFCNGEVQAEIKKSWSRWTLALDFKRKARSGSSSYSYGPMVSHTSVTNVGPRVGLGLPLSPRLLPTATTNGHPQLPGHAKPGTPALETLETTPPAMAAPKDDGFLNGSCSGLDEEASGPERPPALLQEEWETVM
Assay: In vitro cAMP signal activity in HKRK-B7 cells (LLC-PK1 cells overexpressing the human PTH1 receptor)
Format: cell-based
Settings: HKRK-B7 cells; compound at 1×10^−3 M; […]; 0.1 µM

SMILES | cAMP production activity (%)
CNN(C)C(=O)c1cc(C)c(CCS(=O)(=O)N2CCC3(CC2)N=C(C2CCC(CCC(F)(F)F)CC2)NC3=O)c(C)c1 (stereo not shown) [Compound 888, 3,5-Dimethyl-4-(2-{4-oxo-2-[4-(3,3,3-trifluoro-propyl)-cyclohexyl]-1,3,8-triaza-spiro[4.5]dec-1-ene-8-sulfonyl}-ethyl)-benzoic acid N,N′-dimethyl-hydrazide] | 86
O=C(Nc1ccccc1)c1ccccc1S(=O)(=O)N1CCC2(CC1)N=C(C1CCCCC1)NC2=O [Compound 957, 2-(2-Cyclohexyl-4-oxo-1,3,8-triaza-spiro[4.5]dec-1-ene-8-sulfonyl)-N-phenyl-benzamide] | 17

Same assay, conditions: HKRK-B7 cells; compound at 1×10^−3 M; cAMP produced as percentage of that produced by hPTH(1-34) at 100 nM

cAMP production activity (%) | SMILES
58 | Cc1cc(S(=O)(=O)NCc2cccnc2)ccc1CCS(=O)(=O)N1CCC2(CC1)N=C(c1cccc(C(F)(F)F)c1)NC2=O [Compound 852, 3-methyl-4-{2-[4-oxo-2-(3-trifluoromethyl-phenyl)-1,3,8-triaza-spiro[4.5]dec-1-ene-8-sulfonyl]-ethyl}-N-pyridin-3-ylmethyl-benzenesulfonamide]
104 | CCOCc1cc(NC(C)=O)ccc1CCS(=O)(=O)N1CCC2(CC1)N=C(C1CCC(C)CC1)NC2=O (stereo not shown) [Compound 753, N-(3-ethoxymethyl-4-{2-[2-(4-methyl-cyclohexyl)-4-oxo-1,3,8-triaza-spiro[4.5]dec-1-ene-8-sulfonyl]-ethyl}-phenyl)-acetamide]
75 | O=C1NC(C2CCCCC2)=NC12CCN(S(=O)(=O)CCc1ccc3c(ccn3CCOCCO)c1)CC2 [Compound 838, 2-cyclohexyl-8-(2-{1-[2-(2-hydroxy-ethoxy)-ethyl]-1H-indol-5-yl}-ethanesulfonyl)-1,3,8-triaza-spiro[4.5]dec-1-en-4-one]
81 | Cc1cc(C(=O)N(C)N(C)C)cc(C)c1CCS(=O)(=O)N1CCC2(CC1)N=C(C1CCC(CCC(F)(F)F)CC1)NC2=O (stereo not shown) [Compound 787, 3,5-dimethyl-4-(2-{4-oxo-2-[4-(3,3,3-trifluoro-propyl)-cyclohexyl]-1,3,8-triaza-spiro[4.5]dec-1-ene-8-sulfonyl}-ethyl)-benzoic acid trimethylhydrazide]
49 | O=C1NC(C2CCCCCC2)=NC12CCN(S(=O)(=O)/C=C/c1cccc3c1ccn3C[C@H](O)CO)CC2 [Compound 240, 2-Cycloheptyl-8-{(E)-2-[1-((S)-2,3-dihydroxy-propyl)-1H-indol-4-yl]-ethenesulfonyl}-1,3,8-triaza-spiro[4.5]dec-1-en-4-one]
39 | Cc1cc(NS(=O)(=O)N(C)C)ccc1/C=C/S(=O)(=O)N1CCC2(CC1)N=C(C1CCCCC1)NC2=O [Compound 568, N-{4-[(E)-2-(2-cyclohexyl-4-oxo-1,3,8-triaza-spiro[4.5]dec-1-ene-8-sulfonyl)-vinyl]-3-methyl-phenyl}-N′,N′-dimethyl-sulfamide]
51 | CCCC[C@H]1CC[C@H](C2=NC3(CCN(S(=O)(=O)/C=C/c4c(C)cc(N(CC5(C)COC5)C(C)=O)cc4C)CC3)C(=O)N2)CC1 [Compound 632, N-(4-{(E)-2-[2-(4-butyl-cyclohexyl)-4-oxo-1,3,8-triaza-spiro[4.5]dec-1-ene-8-sulfonyl]-vinyl}-3,5-dimethyl-phenyl)-N-(3-methyl-oxetan-3-ylmethyl)-acetamide]
124 | Cc1cc(N2CCOCC2=O)ccc1CCS(=O)(=O)N1CCC2(CC1)N=C(c1cccc(OC(F)(F)F)c1)NC2=O [Compound 793, 8-{2-[2-methyl-4-(3-oxo-morpholin-4-yl)-phenyl]-ethanesulfonyl}-2-(3-trifluoromethoxy-phenyl)-1,3,8-triaza-spiro[4.5]dec-1-en-4-one]
4.2 | O=C1NC(c2cccc(Cl)c2)=NC12CCN(S(=O)(=O)c1cccc(Cl)c1)CC2 [Compound 6, 8-(3-chloro-benzenesulfonyl)-2-(3-chloro-phenyl)-1,3,8-triaza-spiro[4.5]dec-1-en-4-one]
31 | O=C1NC(C2CCCCC2)=NC12CCCN(S(=O)(=O)c1cccc(Cl)c1)CC2 (stereo not shown) [Compound 70, 8-(3-Chloro-benzenesulfonyl)-2-cyclohexyl-1,3,8-triaza-spiro[4.6]undec-1-en-4-one]
67 | Cc1cc(N2CCNCC2=O)ccc1/C=C/S(=O)(=O)N1CCC2(CC1)N=C(C1CCC(C)CC1)NC2=O (stereo not shown) [Compound 1285, 2-(4-methyl-cyclohexyl)-8-{(E)-2-[2-methyl-4-(2-oxo-piperazin-1-yl)-phenyl]-ethenesulfonyl}-1,3,8-triaza-spiro[4.5]dec-1-en-4-one]
36 | CC[C@H]1CC[C@H](C2=NC3(CCN(S(=O)(=O)/C=C/c4ccc(N5CC(=O)NC5=O)cc4C)CC3)C(=O)N2)CC1 [Compound 624, 1-(4-{(E)-2-[2-(4-Ethyl-cyclohexyl)-4-oxo-1,3,8-triaza-spiro[4.5]dec-1-ene-8-sulfonyl]-vinyl}-3-methyl-phenyl)-imidazolidine-2,4-dione]
28 | O=C(CCCOCc1ccccc1)N1CCCC(C2=NC3(CCN(S(=O)(=O)CCc4cccc5ccccc45)CC3)C(=O)N2)C1 (stereo not shown) [Compound 436, 2-[1-(4-benzyloxy-butyryl)-piperidin-3-yl]-8-(2-naphthalen-1-yl-ethanesulfonyl)-1,3,8-triaza-spiro[4.5]dec-1-en-4-one]
126 | Cc1cc(C(=O)N2CCN(CCCN(C)C)CC2)cc(C)c1/C=C/S(=O)(=O)N1CCC2(CC1)N=C(c1cccc(OC(F)(F)F)c1)NC2=O [Compound 397, 8-((E)-2-{4-[4-(3-dimethylamino-propyl)-piperazine-1-carbonyl]-2,6-dimethyl-phenyl}-ethenesulfonyl)-2-(3-trifluoromethoxy-phenyl)-1,3,8-triaza-spiro[4.5]dec-1-en-4-one]
112 | Cc1cc(N2C(=O)CC[C@@H]2CO)ccc1/C=C/S(=O)(=O)N1CCC2(CC1)N=C(c1ccc(F)c(C(F)(F)F)c1)NC2=O [Compound 620, 2-(4-fluoro-3-trifluoromethyl-phenyl)-8-{(E)-2-[4-((R)-2-hydroxymethyl-5-oxo-pyrrolidin-1-yl)-2-methyl-phenyl]-ethenesulfonyl}-1,3,8-triaza-spiro[4.5]dec-1-en-4-one]
14 | Cc1cc(C(=O)N2CCS(=O)(=O)CC2)ccc1/C=C/S(=O)(=O)N1CCC2(CC1)N=C(C1CCCCC1)NC2=O [Compound 502, 2-cyclohexyl-8-{(E)-2-[4-(1,1-dioxo-1λ^6-thiomorpholine-4-carbonyl)-2-methyl-phenyl]-ethenesulfonyl}-1,3,8-triaza-spiro[4.5]dec-1-en-4-one]
26 | Cc1cc(OC2CCNCC2)ccc1CCS(=O)(=O)N1CCC2(CC1)N=C(c1cccc(OC(F)(F)F)c1)NC2=O [Compound 889, 8-{2-[2-Methyl-4-(piperidin-4-yloxy)-phenyl]-ethanesulfonyl}-2-(3-trifluoromethoxy-phenyl)-1,3,8-triaza-spiro[4.5]dec-1-en-4-one hydrochloride]
88 | Cc1cc(C(=O)N(C)C)ccc1CCS(=O)(=O)N1CCC2(CC1)N=C(c1ccc(F)cc1Cl)NC2=O [Compound 90, 4-{2-[2-(2-chloro-4-fluoro-phenyl)-4-oxo-1,3,8-triaza-spiro[4.5]dec-1-ene-8-sulfonyl]-ethyl}-3,N,N-trimethyl-benzamide]
38 | CCCC(CCC)C1=NC2(CCN(S(=O)(=O)CCc3c(C)cc(N(C)C(N)=O)cc3C)CC2)C(=O)N1 [Compound 1041, 1-(3,5-dimethyl-4-{2-[4-oxo-2-(1-propyl-butyl)-1,3,8-triaza-spiro[4.5]dec-1-ene-8-sulfonyl]-ethyl}-phenyl)-1-methyl-urea]
42 | CC(=O)N(CCO)c1ccc(C)c(/C=C/S(=O)(=O)N2CCC3(CC2)N=C(c2cccc(OC(F)(F)F)c2)NC3=O)c1 [Compound 257, N-(2-hydroxy-ethyl)-N-(4-methyl-3-{(E)-2-[4-oxo-2-(3-trifluoromethoxy-phenyl)-1,3,8-triaza-spiro[4.5]dec-1-ene-8-sulfonyl]-vinyl}-phenyl)-acetamide]
67 | Cc1cc(S(=O)(=O)NCCN(C)C)ccc1/C=C/S(=O)(=O)N1CCC2(CC1)N=C(C1CCCCC1)NC2=O [Compound 503, 4-[(E)-2-(2-cyclohexyl-4-oxo-1,3,8-triaza-spiro[4.5]dec-1-ene-8-sulfonyl)-vinyl]-N-(2-dimethylamino-ethyl)-3-methyl-benzenesulfonamide]
19 | Cc1cc(C(=O)N2CCN(S(C)(=O)=O)CC2)ccc1CCS(=O)(=O)N1CCC2(CC1)N=C(c1cccc(C(F)(F)F)c1)NC2=O [Compound 352, 8-{2-[4-(4-Methanesulfonyl-piperazine-1-carbonyl)-2-methyl-phenyl]-ethanesulfonyl}-2-(3-trifluoromethyl-phenyl)-1,3,8-triaza-spiro[4.5]dec-1-en-4-one]
52 | Cc1cc(C(=O)N2CCC(O)(C(F)(F)F)CC2)cc(C)c1/C=C/S(=O)(=O)N1CCC2(CC1)N=C(C1CCCCC1)NC2=O [Compound 1006, 2-Cyclohexyl-8-{(E)-2-[4-(4-hydroxy-4-trifluoromethyl-piperidine-1-carbonyl)-2,6-dimethyl-phenyl]-ethenesulfonyl}-1,3,8-triaza-spiro[4.5]dec-1-en-4-one]
